Here are results for 3 molecules from paper PMC4139342, “Pharmacokinetics-Pharmacodynamics Analysis of Bicyclic 4-Nitroimidazole Analogs in a Murine Model of Tuberculosis” (PLoS ONE, 2014).

Structures are written as SMILES. In brackets after ≈: the same amount, converted by molar mass.

Data set [1] relates to M. tuberculosis (Mtb) (H37Rv, ATCC 27294). Nature of the data set: microbe, parasite or virus in culture. In kind it is cell-based. Conditions: for MIC99: Mycobacterium tuberculosis.
Experiment in data set [2]: not given
This is another data set of the same source.

The conditions of data set [3]: female, CD-1, mouse, in vivo, po, 25 mg/kg.
Data set [4] is described as follows: in vivo. Conditions: female, CD-1, mouse, po, 25 mg/kg.
Data set [5] can be described thus: in vivo. To be noted: female, CD-1, mouse, iv, 5 mg/kg; for clearance: i.v. CL.
Data set [6] is described as follows: in vivo. To be noted: female, CD-1, mouse, po, 25 mg/kg. This is another data set of the same source.
Data set [7] in a line: In vivo plasma PK after intravenous dosing. Conditions: female, CD-1, mouse, plasma, iv, 5 mg/kg, T1/2 (i.v), mice, i.v. dosing at 5 mg/kg.
Data set [8] can be described thus: In vivo plasma PK after oral dosing in CM-2 formulation. To be noted: female, CD-1, mouse, plasma, po, 25 mg/kg.
The conditions of data set [9]: cited from earlier work.
Data set [10] can be described thus: Cytotoxicity against THP1 macrophage cell lines. It is filed as cell-based. Conditions: human.
For the next data set, the system named is Mtb H37Rv. In words: In vivo mouse efficacy, established murine TB model. To be noted: for Efficacy compared with PA-824, in words: significance at P<0.05. Also noted: species or system Balb/c mice. The procedure:
In vivo mouse efficacy studies were determined after intranasal infection of Balb/c mice with 10^3 cfu Mtb H37Rv. Treatment was initiated 4 weeks after infection. Compounds were orally administered in CM-2 formulation for 4 weeks daily. Bacterial loads were determined at 2 and 4 weeks post treatment. Statistical analysis was done by a one-way analysis of variance, followed by a multiple comparison analysis of variance by a one-way Tukey test (GraphPad Prism, version 5.02, San Diago, California USA, www.graphpad.com). Differences were considered statistically significant at the 95% level of confidence.

For data set [11] the following is noted: female, CD-1, mouse, in vivo, po, 25 mg/kg. This is another data set of the same source.
A short description of data set [12]: in vitro. To be noted: human, Caco-2.
Data set [13] can be described thus: in vitro. Conditions: mouse, plasma.
The nature of data set [14]: In vivo lung PK after oral dosing. To be noted: female, CD-1, mouse, 25 mg/kg.
Where [15] appears, read: 25 mg/kg oral daily for 4 weeks, 5 animals.

By AUC is commonly meant concentration integrated over time. Lower therefore signals less exposure. The term Cmax denotes the peak of the concentration-time curve. For orientation: Tmax means the time at which the peak concentration occurs. What is called bioavailability is dose-corrected exposure relative to a reference, in per cent. Read a high bioavailability as much systemic uptake. As usually defined, the Vd is a proportionality between amount in the body and measured concentration, not a real space. Low values mean confinement near the circulation, high ones extensive tissue distribution. The clearance is the volume of plasma or blood freed of the substance per unit of time. By logP is commonly meant a log measure of how a compound divides between an organic and an aqueous phase. Higher therefore signals a more lipophilic compound. In general, half-life refers to the time needed for the level to fall by half in the phase considered. Low readings indicate rapid decline, high ones slow decline. As for `O=[N+]([O-])c1cn2c(n1)OC[C@@H](NCc1ccc(OC(F)(F)F)c(O)c1)C2` [NI-147], the “Solubility pH 6.8” value was determined as 56.0 µg/mL. In data set [1], the MIC99 was 0.03 µg/mL (≈ 0.0802 µM). Further, in [2], the “PAMPA %FA” value stood at 43% and the “PAMPA Log Pe” value was “–5.2 cm/sec”. Moreover, in [3], the “Lung AUC24” value was determined as 2.6 µg·h/g and the “Lung Cmax” value was 0.5 µg/g. In the data set “in vivo [4]”, the AUC came to 20 ng·h/mL, the peak level (Cmax) was 40 ng/mL, the Tmax turned out to be 6 min and the bioavailability worked out at 0.3%. For the same molecule, in “in vivo [5]”, the Vd was determined as 0.4 L/kg and the clearance was found to be 70.8 mL/min/kg. Moreover, the Tmax in “in vivo [6]” was 6 min. Besides, the logP in “physchem” came out at 2.4. Moreover, the half-life in data set [7] was 18 min. In data set [8], this molecule gave a half-life of 12 min.

The Vss is a proportionality between amount in the body and measured concentration, not a real space. As for `CC[C@H]1OC(=O)[C@H](C)[C@@H](O[C@H]2C[C@@](C)(OC)[C@@H](O)[C@H](C)O2)[C@H](C)[C@@H](O[C@@H]2O[C@H](C)C[C@H](N(C)C)[C@H]2O)[C@](C)(O)C[C@@H](C)CN(C)[C@H](C)[C@@H](O)[C@]1(C)O` [Azithromycin], in data set [9], the AUC lung/serum is 21 and the Vss is listed as 33 L/kg.

A word on the CC50: it is the concentration at which the toxic effect on the cells reaches its halfway point. As usually defined, the Kp is tissue or fluid exposure divided by exposure in the circulation. The term Papp A→B denotes the apparent permeability from the apical to the basolateral side of a cell layer. For orientation: Papp B→A means how fast a substance crosses the layer from the basolateral side. A word on the efflux ratio: it is a quotient of directional permeabilities that is used to spot active efflux. Usually fraction unbound stands for the share of the substance not bound to proteins or other matrix. A lower fraction unbound goes with extensive binding. Consider `O=[N+]([O-])c1cn2c(n1)OC[C@@H](NCc1ccc(OC(F)(F)F)c(Cl)c1)C2` [NI-135], for which the “Solubility pH 6.8” value worked out at 77.0 µg/mL. In data set [1], the “In vitro potency relative to PA-824” value stood at 10 times and the MIC99 was 0.03 µg/mL (≈ 0.0764 µM). Also, the CC50 in data set [10] is > 10 µg/mL. Further, in the data set on Mtb H37Rv (setting [15]), the “Mean log lung CFU reduction ± SEM compared to untreated controls” value worked out at 1.48 ± 0.07 log CFU and the “Mean log lung CFU ± SEM” value is reported as 4.76±0.07 log CFU. Besides, the “Efficacy compared with PA-824, in words” value in the data set with Mtb H37Rv (25 mg/kg oral daily for 4 weeks) is “comparable efficacy to PA-824”. The “Mean log lung CFU ± SEM” value in the data set on Mtb H37Rv (100 mg/kg oral daily for 4 weeks, 5 animals) worked out at 4.36±0.07 log CFU. Besides, the “Efficacy compared with PA-824, in words” value in the data set on Mtb H37Rv (100 mg/kg oral daily for 4 weeks) is on record as “comparable efficacy to PA-824”. In the data set on Mtb H37Rv (25 versus 100 mg/kg oral daily for 4 weeks), the “Dose dependence of efficacy, in words” value is listed as “dose dependent increase in efficacy”. Moreover, the log reduction at 25 mg/kg in the data set on Mtb H37Rv (Mycobacterium tuberculosis, H37RV, po, 672 h, 25 mg/kg oral daily for 4 weeks, 5 animals, read-out: Mean log lung CFU reduction ± SEM compared to untreated controls) was found to be 1.48 ± 0.07. The log reduction at 100 mg/kg in the data set with Mtb H37Rv (Mycobacterium tuberculosis, H37RV, po, 672 h, 100 mg/kg oral daily for 4 weeks, 5 animals, read-out: Mean log lung CFU reduction ± SEM compared to untreated controls) worked out at 1.88 ± 0.07. Also, in data set [2], the “PAMPA %FA” value turned out to be 90% and the “PAMPA Log Pe” value is on record as “–4.5 cm/sec”. In addition, the “Plasma free fCmax” value in data set [11] was found to be 0.1 µg/mL. In data set [3], the “Absolute lung concentrations, fold lower than PA-824” value is recorded as 2.5-7.5 fold; the “Lung AUC24” value came out at 18.6 µg·h/g; the “Lung Cmax” value is listed as 5.5 µg/g. Besides, in “in vivo [4]”, the AUC turned out to be 4800 ng·h/mL, the peak level (Cmax) was 1200 ng/mL, the Tmax is 30 min and the bioavailability was 51%. Moreover, in the data set “in vivo [5]”, the Vd turned out to be 4.2 L/kg and the clearance was found to be 41 mL/min/kg. In the data set “in vivo [6]”, the Tmax stood at 30 min. Also, the Kp in “in vivo [6]” (Lung to Plasma ratio AUC24) stood at 3.9. Besides, the Kp in the data set “in vivo [6]” (Lung to Plasma ratio Cmax) was 4.6. In addition, the logP in “physchem” is 3. Besides, in “in vitro [12]”, the apparent permeability from apical to basolateral (Papp A→B) is 23.4 ×10⁻⁶ cm/s, the Papp B→A was 15.3 ×10⁻⁶ cm/s and the efflux ratio amounted to 0.6. This molecule had a fraction unbound in “in vitro [13]” of 0.085. The molecule also gave a half-life in [14] of 198 min. This molecule also showed a half-life in data set [7] of 240 min. The same molecule had a half-life in data set [8] of 174 min.
